Target: T1, α5β1 integrin (Homo sapiens, UniProt P05556+P08648)
T1 construct: α5β1 integrin mediated adhesion of K562 cells; host or cells: K562 human erythroleukaemia cells (integrin, endogenous); E. coli (Fn9-10 ligand, made in house)
Test: In vitro cell adhesion assay: α5β1 integrin mediated adhesion of K562 cells to fibronectin fragment Fn9-10
Format: cell-based
Settings: human K562 erythroleukaemia cells; Fn9-10 coated plates; 0.2 mM MnCl; 45 minutes at 37° C.; crystal violet absorbance at 590 nm
Excerpt: The assay determined the ability of compounds to inhibit the α5β1 integrin mediated adhesion of K562 cells to the ligand, a fragment of human fibronectin. The human K562 erythroleukaemia cell line (LGC Promochem, Teddington, Middlesex, UK, Catalogue No. CCL-243) was routinely maintained in RPMI 1640 medium (Sigma-Aldrich Company Ltd, Gillingham, Dorset SP8 4XT, Catalogue No. R0883) containing 10% heat-inactivated foetal calf serum (PAA lab GmbH, Pasching, Austria Catalogue No. PAA-A15-043) and 1% glutamax-1 (Invitrogen Ltd. Paisley, UK Catalogue No. 35050-038) at 37° C. with 5% CO2 at densities between 1×10^5 and 1×10^6 cells/ml.
A DNA fragment encoding the domains 9-10 (amino-acids 1325-1509) of human fibronectin (Swiss-Prot Accession No. P02751) was isolated from cDNA libraries using standard molecular biology and PCR cloning techniques. The cDNA fragment was sub-cloned into a pT7#3.3 expression vector containing a GST-epitope tag (developed at AstraZeneca; Bagnall et al., Protein Expression and Purification, 2003, 27: 1-11), and the fragment termed Fn9-10. Following expression in E. coli, the expressed protein was purified using the GST-tag using standard purification techniques.
For adhesion assay, a 96-well flat bottomed plate (Greiner Bio one ltd., Gloucester GL10 3SX Catalogue No. 655101) was coated overnight at 4° C. with 100 μl of 20 μg/ml Fn9-10 ligand in Dulbecco's PBS (Gibco #14190-94). The plate was then washed twice with 200 μl of PBS and blocked with 100 μl of 3% BSA (SigmaA7888) in PBS for 1 hour at 37° C. The plates were then washed again 3 times with 200 μl of PBS and left empty. […]
After fixation, the ethanol was flicked off to waste and 100 μl of 0.1% Crystal violet stain was added to each well, and incubated at ambient temperature for 15 minutes. […] Finally, 100 μl of deionised water was added to each well and the absorbance was determined at 590 nm on a spectrophotometer. The minimum value was subtracted from all values, and the absorbance signal was plotted against compound concentration to generate IC50 data.

T1 sequence (P08648 42-894 limits assumed): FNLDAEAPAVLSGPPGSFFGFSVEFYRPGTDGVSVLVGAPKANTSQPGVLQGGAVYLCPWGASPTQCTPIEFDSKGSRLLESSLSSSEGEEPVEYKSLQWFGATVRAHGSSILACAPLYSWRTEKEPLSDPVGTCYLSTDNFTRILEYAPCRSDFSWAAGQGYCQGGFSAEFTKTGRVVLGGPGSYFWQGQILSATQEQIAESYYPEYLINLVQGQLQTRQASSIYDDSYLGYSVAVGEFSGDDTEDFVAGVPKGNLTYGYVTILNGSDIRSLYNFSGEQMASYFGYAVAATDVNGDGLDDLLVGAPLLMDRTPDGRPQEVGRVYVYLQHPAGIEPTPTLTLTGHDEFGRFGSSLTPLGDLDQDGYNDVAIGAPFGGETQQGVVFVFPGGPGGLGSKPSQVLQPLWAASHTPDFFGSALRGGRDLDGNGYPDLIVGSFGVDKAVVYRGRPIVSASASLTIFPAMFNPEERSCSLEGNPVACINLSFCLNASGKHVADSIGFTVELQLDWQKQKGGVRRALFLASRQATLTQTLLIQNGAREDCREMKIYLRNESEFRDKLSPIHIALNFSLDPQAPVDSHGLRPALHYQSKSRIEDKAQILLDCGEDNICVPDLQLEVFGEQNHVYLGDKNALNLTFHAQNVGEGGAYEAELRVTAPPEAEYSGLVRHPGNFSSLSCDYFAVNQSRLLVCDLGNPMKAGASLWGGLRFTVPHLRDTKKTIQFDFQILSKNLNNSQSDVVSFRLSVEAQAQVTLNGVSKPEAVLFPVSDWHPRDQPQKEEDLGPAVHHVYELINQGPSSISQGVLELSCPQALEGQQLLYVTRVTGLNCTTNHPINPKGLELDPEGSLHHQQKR
T1 sequence (P08648 895-1049 partner limits assumed): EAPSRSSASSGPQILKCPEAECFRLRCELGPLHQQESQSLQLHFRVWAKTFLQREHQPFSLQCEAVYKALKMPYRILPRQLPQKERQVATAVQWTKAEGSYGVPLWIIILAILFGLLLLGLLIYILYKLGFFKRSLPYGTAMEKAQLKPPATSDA
T1 sequence (P05556 21-798): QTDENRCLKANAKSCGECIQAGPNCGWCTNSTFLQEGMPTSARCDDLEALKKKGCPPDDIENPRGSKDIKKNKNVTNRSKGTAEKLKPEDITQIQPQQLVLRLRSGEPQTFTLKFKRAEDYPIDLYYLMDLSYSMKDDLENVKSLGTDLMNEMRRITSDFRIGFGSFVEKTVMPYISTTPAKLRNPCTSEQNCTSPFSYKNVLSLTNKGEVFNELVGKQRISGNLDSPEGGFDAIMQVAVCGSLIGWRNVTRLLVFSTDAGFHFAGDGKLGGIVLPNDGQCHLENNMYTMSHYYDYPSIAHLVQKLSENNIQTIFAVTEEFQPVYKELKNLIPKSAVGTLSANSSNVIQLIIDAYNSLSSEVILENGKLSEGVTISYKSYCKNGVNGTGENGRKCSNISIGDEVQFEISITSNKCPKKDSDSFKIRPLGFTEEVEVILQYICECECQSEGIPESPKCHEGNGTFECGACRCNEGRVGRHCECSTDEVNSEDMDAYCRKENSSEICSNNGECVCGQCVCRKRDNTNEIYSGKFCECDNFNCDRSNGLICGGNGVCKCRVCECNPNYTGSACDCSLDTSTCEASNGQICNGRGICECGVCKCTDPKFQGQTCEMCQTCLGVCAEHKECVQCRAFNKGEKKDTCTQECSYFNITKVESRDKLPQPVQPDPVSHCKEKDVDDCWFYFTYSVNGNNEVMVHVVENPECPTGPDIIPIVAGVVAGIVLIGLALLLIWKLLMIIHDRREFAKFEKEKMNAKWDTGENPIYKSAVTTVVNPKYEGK

| SMILES | IC50 [µM] |
| --- | --- |
| O=C(N[C@@H](Cc1ccc(C2CCN(Cc3ccccc3F)CC2)cc1)C(=O)O)c1c(Cl)cccc1Cl [N-(2,6-dichlorobenzoyl)-4-[1-(2-fluorobenzyl)piperidin-4-yl]-L-phenylalanine] | ≥ 30 |
| Cc1cccc(Cl)c1C(=O)N[C@@H](Cc1ccc(C2=CCN(Cc3ccc(F)cc3)CC2)cc1)C(=O)O [N-(2-chloro-6-methylbenzoyl)-4-[1-(4-fluorobenzyl)-1,2,3,6-tetrahydropyridin-4-yl]-L-phenylalanine] | ≥ 30 |
| COc1cccc(CN2CCC(c3ccc(C[C@H](NC(=O)c4c(Cl)cccc4Cl)C(=O)O)cc3)CC2)c1 [N-(2,6-dichlorobenzoyl)-4-[1-(3-methoxybenzyl)piperidin-4-yl]-L-phenylalanine] | ≥ 30 |

— patent publication US20090137601A1, “L-Phenylalanine Derivatives” (ASTRAZENECA AB, priority 2005, published 2009)
